Assays:
hCBS-FL = biological target: T1, hCBS-FL (Homo sapiens, UniProt P35520); assay: H2S in HEK293T cells transiently expressing hCBS (AzMC probe); format: cell-based; conditions: 10 μM, 8 h
T1 sequence (P35520 1-551): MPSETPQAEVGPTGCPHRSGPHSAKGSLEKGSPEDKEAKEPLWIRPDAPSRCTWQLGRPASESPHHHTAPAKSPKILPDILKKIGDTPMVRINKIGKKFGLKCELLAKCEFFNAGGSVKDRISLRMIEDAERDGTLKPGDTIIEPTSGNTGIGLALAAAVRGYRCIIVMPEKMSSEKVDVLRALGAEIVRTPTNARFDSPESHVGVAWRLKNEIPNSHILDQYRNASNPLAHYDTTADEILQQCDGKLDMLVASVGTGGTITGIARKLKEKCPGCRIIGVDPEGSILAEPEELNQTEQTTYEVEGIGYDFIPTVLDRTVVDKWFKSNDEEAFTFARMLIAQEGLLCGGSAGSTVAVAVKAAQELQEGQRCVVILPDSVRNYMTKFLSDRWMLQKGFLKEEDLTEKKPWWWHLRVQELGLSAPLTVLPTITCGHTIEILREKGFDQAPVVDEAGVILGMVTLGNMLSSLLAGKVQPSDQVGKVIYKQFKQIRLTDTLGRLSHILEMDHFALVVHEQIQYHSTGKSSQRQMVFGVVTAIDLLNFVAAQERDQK
Method: HEK293T cells were transiently transfected with empty vector (EV, i and ii), hCBS-FL (iii and iv) or hCSE (v and vi) plasmids, followed by incubation with DMSO (i–iii and v) or 10 μM CH004 (iv and vi) for 8 h before staining with 50 μM AzMC, a H2S-specific probe (“Materials and Methods” section). For larger fluorescent and bright-field images, please see Supplementary Figure 4. The expression levels of hCBS or hCSE in HEK293T cells after transient transfections were determined by western blotting using an anti-CBS antibody (3E1, 1:2000; Abnova) or anti-CSE antibody (1:500, GeneTex). The densities of protein bands for hCBS or hCSE in the blots were quantified with the ImageJ software (National Institutes of Health, Bethesda, MD, USA) and expressed as ratios of respective control (EV group). […] The fluorescent images of the H2S (blue) were accordingly quantified (“Materials and Methods” section) with ImageJ. […] A representative fluorescence image from three independent experiments is shown. […]
H2S levels in living cells were detected using a H2S-specific fluorescent probe according to a protocol described previously[31],[55]. […] After incubation with 50 μM AzMC at 37 °C for 30 min, the cells were washed 4 times with PBS, and the fluorescent images were recorded with excitation by 405 nm laser by using a A1Si (Nikon) confocal microscope. […]

hCBS S147A = biological target: T2, hCBS S147A (Homo sapiens, UniProt P35520, S147A); assay: purified hCBS mutant enzyme assay; format: biochemical
T2 construct: hCBS-413 (a C-terminal truncated hCBS 1–413); GST (N); made in house; host or cells: E. coli BL21
Method: (§1) The IC50 values of CH004 for hCBS-413, hCBS-413 mutants, hCBS-FL, hCSE or hDDC were determined according to the standard assay conditions otherwise indicated.
(§2) Table S2. Inhibitory effects of CH004 on hCBS WT and mutants.

hCBS T146A = biological target: T3, hCBS T146A (Homo sapiens, UniProt P35520, T146A); assay: purified hCBS mutant enzyme assay; format: biochemical
T3 construct: hCBS-413 (a C-terminal truncated hCBS 1–413); GST (N); made in house; host or cells: E. coli BL21
Method: as §1, §2

hCBS Y223F = biological target: T4, hCBS Y223F (Homo sapiens, UniProt P35520, Y223F); assay: purified hCBS mutant enzyme assay; format: biochemical
T4 construct: hCBS-413 (a C-terminal truncated hCBS 1–413); GST (N); made in house; host or cells: E. coli BL21
Method: as §1, §2

[1] = 150 nM CBS, 4 mM Hcys, 4 mM Cys, Tris-HCl pH 8.6

T2 sequence (P35520 1-413 S147A): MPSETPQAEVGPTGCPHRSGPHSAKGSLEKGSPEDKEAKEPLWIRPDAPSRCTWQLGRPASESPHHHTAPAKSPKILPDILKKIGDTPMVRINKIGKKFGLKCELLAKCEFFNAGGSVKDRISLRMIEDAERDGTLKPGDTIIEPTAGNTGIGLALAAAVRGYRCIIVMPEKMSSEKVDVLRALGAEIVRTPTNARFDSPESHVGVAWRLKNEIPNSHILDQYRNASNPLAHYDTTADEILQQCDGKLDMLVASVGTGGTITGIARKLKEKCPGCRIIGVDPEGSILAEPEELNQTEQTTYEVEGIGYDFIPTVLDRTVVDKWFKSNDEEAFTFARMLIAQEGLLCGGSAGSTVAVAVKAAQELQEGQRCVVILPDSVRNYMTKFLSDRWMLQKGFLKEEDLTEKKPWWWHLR
T4 sequence (P35520 1-413 Y223F): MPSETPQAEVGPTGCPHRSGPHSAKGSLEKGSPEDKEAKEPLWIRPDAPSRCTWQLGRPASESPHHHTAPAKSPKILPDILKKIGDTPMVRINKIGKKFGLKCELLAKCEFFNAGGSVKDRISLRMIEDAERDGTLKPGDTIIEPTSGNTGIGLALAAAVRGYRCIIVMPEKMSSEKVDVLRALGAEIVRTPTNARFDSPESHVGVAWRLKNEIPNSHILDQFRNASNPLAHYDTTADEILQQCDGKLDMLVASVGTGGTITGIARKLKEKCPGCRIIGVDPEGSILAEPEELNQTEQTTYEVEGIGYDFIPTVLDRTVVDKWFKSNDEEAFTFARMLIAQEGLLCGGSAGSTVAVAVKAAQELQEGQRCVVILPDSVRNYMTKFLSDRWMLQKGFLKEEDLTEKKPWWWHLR
T3 sequence (P35520 1-413 T146A): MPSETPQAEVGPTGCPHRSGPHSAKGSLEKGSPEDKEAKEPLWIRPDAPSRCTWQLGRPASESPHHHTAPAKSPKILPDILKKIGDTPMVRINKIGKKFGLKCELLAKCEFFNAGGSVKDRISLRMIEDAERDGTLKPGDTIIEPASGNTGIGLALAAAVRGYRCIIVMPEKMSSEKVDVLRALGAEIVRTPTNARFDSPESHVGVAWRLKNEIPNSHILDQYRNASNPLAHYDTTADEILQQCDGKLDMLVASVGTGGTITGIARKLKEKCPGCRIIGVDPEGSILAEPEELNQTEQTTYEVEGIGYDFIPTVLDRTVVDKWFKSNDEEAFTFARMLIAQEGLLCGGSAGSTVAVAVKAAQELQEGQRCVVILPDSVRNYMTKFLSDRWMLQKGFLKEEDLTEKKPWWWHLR

SMILES: Cn1nc(Cc2ccccc2)nc2c(=O)n(C)c(=O)nc1-2 [CH004, 3-benzyl-1,6-dimethylpyrimido[5,4-e][1,2,4]triazine-5,7(1H,6H)-dione]
- decrease in H2S (hCBS-FL): ~ 50%
- IC50 fold to WT, S147A (hCBS S147A): 4.9
- IC50 (hCBS S147A; [1]): 5.9 ± 0.8 µM
- IC50 fold to WT, T146A (hCBS T146A): 4.2
- IC50 (hCBS T146A; 2 µM CBS, 4 mM Hcys, 4 mM Cys, Tris-HCl pH 8.6): 5 ± 1.5 µM
- IC50 fold to WT, Y223F (hCBS Y223F): 3.5
- IC50 (hCBS Y223F; [1]): 4.2 ± 1 µM

Source: PMC6158189, “A pharmacological probe identifies cystathionine β-synthase as a new negative regulator for ferroptosis” (Cell Death & Disease, 2018)
